Reference: patent publication US20140011799A1 (Bristol-Myers Squibb Company, priority 2012, published 2014)

Key:
Endothelial lipase (EL) = molecular target: T1, Endothelial lipase (EL) (Homo sapiens, UniProt Q9Y5X9); assay: Endothelial lipase (EL) enzymatic assay, fluorescent substrate A10070 in DMPG vesicles; assay type: biochemical; details: EL from conditioned media of HT-1080 cells; compound preincubated 30 min at 37° C; read-out: EL IC50
T1 construct: HT-1080 cells that were transformed using RAGE technology (Athersys) to overexpress endogenous EL; endogenous in cells; conditioned medium used
T1 sequence (Q9Y5X9 21-500): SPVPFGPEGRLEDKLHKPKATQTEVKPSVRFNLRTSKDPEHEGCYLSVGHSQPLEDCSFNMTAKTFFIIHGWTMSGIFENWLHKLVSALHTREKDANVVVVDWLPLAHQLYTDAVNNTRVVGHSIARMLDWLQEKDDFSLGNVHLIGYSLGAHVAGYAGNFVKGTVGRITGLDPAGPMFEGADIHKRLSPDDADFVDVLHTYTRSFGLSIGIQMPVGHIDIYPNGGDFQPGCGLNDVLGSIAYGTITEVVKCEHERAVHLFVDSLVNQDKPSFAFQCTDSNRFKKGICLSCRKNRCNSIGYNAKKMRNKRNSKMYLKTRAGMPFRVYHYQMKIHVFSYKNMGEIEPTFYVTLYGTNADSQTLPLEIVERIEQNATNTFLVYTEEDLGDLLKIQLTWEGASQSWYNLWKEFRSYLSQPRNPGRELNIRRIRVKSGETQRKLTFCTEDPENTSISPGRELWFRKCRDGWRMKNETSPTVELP
Summary of the method: (§1)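 Substrate A10070 sits in sonicated DMPG vesicles at 0.11 mole fraction. Lipase and compound preincubated 30 min, 37° C, in HEPES pH 8.0 buffer with CaCl2.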

hepatic lipase (HL) = molecular target: T2, hepatic lipase (HL) (Homo sapiens, UniProt P11150); assay: Hepatic lipase (HL) enzymatic assay, fluorescent substrate A10070 in DMPG vesicles; assay type: biochemical; details: HL partially purified from conditioned media of COS cells; compound preincubated 30 min at 37° C; read-out: HL IC50
T2 construct: made in house; host or cells: COS cells (conditioned medium, partially purified)
T2 sequence (P11150 23-499): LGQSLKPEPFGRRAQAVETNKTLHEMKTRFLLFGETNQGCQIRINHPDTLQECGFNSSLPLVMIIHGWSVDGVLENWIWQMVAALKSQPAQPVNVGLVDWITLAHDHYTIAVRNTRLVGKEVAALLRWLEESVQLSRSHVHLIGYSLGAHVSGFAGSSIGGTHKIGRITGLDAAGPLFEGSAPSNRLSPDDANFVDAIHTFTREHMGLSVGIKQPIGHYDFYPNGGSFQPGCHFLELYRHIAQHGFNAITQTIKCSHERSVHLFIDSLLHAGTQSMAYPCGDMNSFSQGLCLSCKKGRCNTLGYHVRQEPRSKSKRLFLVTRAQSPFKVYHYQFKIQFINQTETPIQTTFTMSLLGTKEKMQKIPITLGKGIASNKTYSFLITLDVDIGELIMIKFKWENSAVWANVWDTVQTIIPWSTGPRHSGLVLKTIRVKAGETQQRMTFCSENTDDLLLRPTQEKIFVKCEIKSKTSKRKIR
Summary of the method: as §1

| IC50 (Endothelial lipase (EL)) [nM] | IC50 (hepatic lipase (HL)) [nM] | SMILES |
| --- | --- | --- |
| < 10 | 121 | NS(=O)(=O)NCc1nnc(C(c2nc3ccc(-c4ccc(C(=O)N5CCOCC5)c(Cl)c4)cc3s2)S(=O)(=O)Cc2ccccc2)o1 (centres unmarked) [Example 149, N-((5-((benzylsulfonyl)(6-(3-chloro-4-(4-morpholinylcarbonyl)phenyl)-1,3-benzothiazol-2-yl)methyl)-1,3,4-oxadiazol-2-yl)methyl)sulfamide] |
| < 10 | 560 | C=CCS(=O)(=O)C(c1nnc(CNS(N)(=O)=O)o1)c1nc2ccc(-c3ccc(C(=O)N4CCOCC4)cc3)cc2s1 (centres unmarked) [Example 150, N-((5-((allylsulfonyl)(6-(4-(4-morpholinylcarbonyl)phenyl)-1,3-benzothiazol-2-yl)methyl)-1,3,4-oxadiazol-2-yl)methyl)sulfamide] |
| < 10 | < 10 | COCCS(=O)(=O)C(c1nnc(CNS(N)(=O)=O)o1)c1nc2ccc(-c3cc(F)cc(Cl)c3)cc2s1 (centres unmarked) [Example 151, N-((5-((6-(3-chloro-5-fluorophenyl)-1,3-benzothiazol-2-yl)((2-methoxyethyl)sulfonyl)methyl)-1,3,4-oxadiazol-2-yl)methyl)sulfamide] |
| 19 | 17 | COCCS(=O)(=O)C(c1nnc(CNS(=O)(=O)NC(=O)OC(C)(C)C)o1)c1nc2ccc(-c3cc(F)cc(Cl)c3)cc2s1 (centres unmarked) [Example 153, tert-butyl (((5-((6-(3-chloro-5-fluorophenyl)-1,3-benzothiazol-2-yl)((2-methoxyethyl)sulfonyl)methyl)-1,3,4-oxadiazol-2-yl)methyl)sulfamoyl) carbamate] |
| 54 | 25 | CC(C)C(O)C(=O)NCc1nnc(C(c2nc3ccc(-c4ccccc4)cc3s2)S(C)(=O)=O)o1 (centres unmarked) [Example 154, 2-hydroxy-3-methyl-N-((5-((methylsulfonyl)(6-phenyl-1,3-benzothiazol-2-yl)methyl)-1,3,4-oxadiazol-2-yl)methyl)butanamide] |
| 137 | 26 | CC(C)(C)[C@H](O)C(=O)NCc1nnc(C(c2nc3ccc(-c4ccccc4)cc3s2)S(C)(=O)=O)o1 (stereo partly drawn) [Example 155, (2S)-2-hydroxy-3,3-dimethyl-N-((5-((methylsulfonyl)(6-phenyl-1,3-benzothiazol-2-yl)methyl)-1,3,4-oxadiazol-2-yl)methyl)butanamide] |
| 57 | 71 | CN(C)C(=O)O[C@H](C(=O)NCc1nnc(C(c2nc3ccc(-c4ccccc4)cc3s2)S(C)(=O)=O)o1)C(C)(C)C (stereo partly drawn) [Example 156, (1S)-2,2-dimethyl-1-(((5-((methylsulfonyl)(6-phenyl-1,3-benzothiazol-2-yl)methyl)-1,3,4-oxadiazol-2-yl)methyl)carbamoyl) propyl dimethylcarbamate] |
| 223 | 34 | CCOCC(=O)NCc1nnc(C(c2nc3ccc(-c4ccccc4)cc3s2)S(C)(=O)=O)o1 (centres unmarked) [Example 157, 2-ethoxy-N-((5-((methylsulfonyl)(6-phenyl-1,3-benzothiazol-2-yl)methyl)-1,3,4-oxadiazol-2-yl)methyl)acetamide] |
| < 10 | 21 | Cn1cc(-c2cc3sc(C(c4nnc(CNS(N)(=O)=O)o4)S(=O)(=O)Cc4ccccc4)nc3cc2F)cn1 (centres unmarked) [Example 158, N-((5-((benzylsulfonyl)(5-fluoro-6-(1-methyl-1H-pyrazol-4-yl)-1,3-benzothiazol-2-yl)methyl)-1,3,4-oxadiazol-2-yl)methyl) sulfamide] |
| 13 | 14 | COc1cc2nc(C(c3nnc(CNS(=O)(=O)NC(=O)OC(C)(C)C)o3)S(C)(=O)=O)sc2cc1-c1cnn(C)c1 (centres unmarked) [Example 159, 2-methyl-2-propanyl {[(5-{[5-methoxy-6-(1-methyl-1H-pyrazol-4-yl)-1,3-benzothiazol-2-yl](methylsulfonyl)methyl}-1,3,4-oxadiazol-2-yl)methyl]sulfamoyl}carbamate] |
| < 10 | 13 | CS(=O)(=O)C(c1nnc(CC2SC(=O)NC2=O)o1)c1nc2cc(F)c(-c3ccccc3)cc2s1 (centres unmarked) [Example 160, 5-((5-((5-fluoro-6-phenyl-1,3-benzothiazol-2-yl)(methylsulfonyl)methyl)-1,3,4-oxadiazol-2-yl)methyl)-1,3-thiazolidine-2,4-dione] |
| < 10 | < 10 | CS(=O)(=O)C(c1nnc(CS(N)(=O)=O)o1)c1nc2c(F)cc(-c3ccccc3)cc2s1 (centres unmarked) [Example 163, 1-(5-((4-fluoro-6-phenyl-1,3-benzothiazol-2-yl)(methylsulfonyl)methyl)-1,3,4-oxadiazol-2-yl)methanesulfonamide] |
| < 10 | 22 | CS(=O)(=O)C(c1nnc(CC2SC(=O)NC2=O)o1)c1nc2cc(C(F)(F)F)c(-c3ccccc3)cc2s1 (centres unmarked) [Example 164, 5-((5-((methylsulfonyl)(6-phenyl-5-(trifluoromethyl)-1,3-benzothiazol-2-yl)methyl)-1,3,4-oxadiazol-2-yl)methyl)-1,3-thiazolidine-2,4-dione] |
| < 10 | 24 | CC(C)Cn1cc(-c2cc(F)c3nc(C(c4nnc(CC5SC(=O)NC5=O)o4)S(=O)(=O)Cc4ccccc4)sc3c2)cn1 (centres unmarked) [Example 165, 5-((5-((benzylsulfonyl)(4-fluoro-6-(1-isobutyl-1H-pyrazol-4-yl)-1,3-benzothiazol-2-yl)methyl)-1,3,4-oxadiazol-2-yl)methyl)-1,3-thiazolidine-2,4-dione] |
| 23 | 32 | Cn1cc(-c2cc3sc(C(c4nnc(CNC(=O)OC(C)(C)C)o4)S(=O)(=O)Cc4ccccc4)nc3cc2F)cn1 (centres unmarked) [Example 166, tert butyl ((5-((benzylsulfonyl)(5-fluoro-6-(1-methyl-1H-pyrazol-4-yl)-1,3-benzothiazol-2-yl)methyl)-1,3,4-oxadiazol-2-yl)methyl)carbamate] |
| < 10 | < 10 | O=C(NCCS(=O)(=O)C(c1nnc(CC2SC(=O)NC2=O)o1)c1nc2cc(F)c(-c3ccccc3)cc2s1)OCc1ccccc1 (centres unmarked) [Example 167, benzyl (2-(((5-((2,4-dioxo-1,3-thiazolidin-5-yl)methyl)-1,3,4-oxadiazol-2-yl)(5-fluoro-6-phenyl-1,3-benzothiazol-2-yl)methyl)sulfonyl)ethyl)carbamate] |
| < 10 | 19 | CS(=O)(=O)C(c1nnc(C[C@@H]2NS(=O)(=O)NC2=O)o1)c1nc2cc(F)c(-c3ccccc3)cc2s1 (stereo partly drawn) [Example 168, (4S)-4-((5-((5-fluoro-6-phenyl-1,3-benzothiazol-2-yl)(methylsulfonyl)methyl)-1,3,4-oxadiazol-2-yl)methyl)-1,2,5-thiadiazolidin-3-one 1,1-dioxide] |

| SMILES | IC50 (Endothelial lipase (EL)) [nM] | IC50 (hepatic lipase (HL)) [nM] |
| --- | --- | --- |
| COC(=O)CCS(=O)(=O)C(c1nnc(CC2SC(=O)NC2=O)o1)c1nc2cc(F)c(-c3ccccc3)cc2s1 (centres unmarked) [Example 161, methyl 3-(((5-((2,4-dioxo-1,3-thiazolidin-5-yl)methyl)-1,3,4-oxadiazol-2-yl)(5-fluoro-6-phenyl-1,3-benzothiazol-2-yl)methyl)sulfonyl)propanoate] | < 10 | < 10 |
| O=C1NC(=O)C(Cc2nnc(C(c3nc4ccc(-c5ccccc5)c(F)c4s3)S(=O)(=O)Cc3ccccc3)o2)S1 (centres unmarked) [Example 162, 5-((5-((benzylsulfonyl)(7-fluoro-6-phenyl-1,3-benzothiazol-2-yl)methyl)-1,3,4-oxadiazol-2-yl)methyl)-1,3-thiazolidine-2,4-dione] | < 10 | < 10 |
